Test results taken from PubChem BioAssay AID248 (DTP/NCI, 2004).
Toxic doses and inconclusive results are not listed. Cut-off read from the data, not from the text of the source: active = T/C of 150% or more; inactive = T/C below 125%.

Test system: L1210 leukemia ip in BDF1 mice, survival T/C
Experiment: NCI In Vivo Anticancer Drug Screen. Data for tumor model L1210 Leukemia (intraperitoneal) in B6D2F1 (BDF1) mice
Settings: endpoint: mean survival time, higher = longer survival
Outline: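 Each compound was tested against a transplantable tumor grown in mice. The endpoint was survival, with treated animals benchmarked against vehicle controls as a simple ratio.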

[1] = dose: 100.0 mg/kg/injection, schedule: Q01DX009 (ip), vehicle: saline with Tween-80
[2] = dose: 200.0 mg/kg/injection, schedule: Q01DX009 (ip), vehicle: saline with Tween-80
[3] = dose: 50.0 mg/kg/injection, schedule: Q01DX009 (ip), vehicle: Klucel (hydroxypropylcellulose) (HPC)
[4] = dose: 100.0 mg/kg/injection, schedule: Q01DX009 (ip), vehicle: Klucel (hydroxypropylcellulose) (HPC)
[5] = dose: 100.0 mg/kg/injection, schedule: Q01DX009 (ip), vehicle: saline
[6] = dose: 100.0 mg/kg/injection, schedule: Q04DX003 (ip), vehicle: Klucel (hydroxypropylcellulose) (HPC)
[7] = dose: 200.0 mg/kg/injection, schedule: Q01DX009 (ip), vehicle: Klucel (hydroxypropylcellulose) (HPC)
[8] = dose: 200.0 mg/kg/injection, schedule: Q01DX009 (ip), vehicle: saline
[9] = dose: 200.0 mg/kg/injection, schedule: Q04DX003 (ip), vehicle: Klucel (hydroxypropylcellulose) (HPC)
[10] = dose: 400.0 mg/kg/injection, schedule: Q04DX003 (ip), vehicle: Klucel (hydroxypropylcellulose) (HPC)
[11] = dose: 400.0 mg/kg/injection, schedule: Q01DX009 (ip), vehicle: Klucel (hydroxypropylcellulose) (HPC)
[12] = dose: 400.0 mg/kg/injection, schedule: Q01DX009 (ip), vehicle: saline
[13] = dose: 400.0 mg/kg/injection, schedule: Q01DX009 (ip), vehicle: saline with Tween-80
[14] = dose: 100.0 mg/kg/injection, schedule: Q04DX003 (ip), vehicle: saline with Tween-80
[15] = dose: 200.0 mg/kg/injection, schedule: Q04DX003 (ip), vehicle: saline with Tween-80
[16] = dose: 400.0 mg/kg/injection, schedule: Q04DX003 (ip), vehicle: saline with Tween-80
[17] = dose: 100.0 mg/kg/injection, schedule: Q04DX003 (ip), vehicle: saline
[18] = dose: 200.0 mg/kg/injection, schedule: Q04DX003 (ip), vehicle: saline
[19] = dose: 400.0 mg/kg/injection, schedule: Q04DX003 (ip), vehicle: saline
[20] = dose: 25.0 mg/kg/injection, schedule: Q01DX009 (ip), vehicle: Klucel (hydroxypropylcellulose) (HPC)

Measured: T/C

Cc1cc(C)c2c(c1)CC2NC(=O)c1ccccc1 (stereo unspecified)
inactive: dose: 25.0 mg/kg/injection, schedule: Q04DX002 (ip), vehicle: Klucel (hydroxypropylcellulose) (HPC) 100 % of control | dose: 50.0 mg/kg/injection, schedule: Q04DX002 (ip), vehicle: Klucel (hydroxypropylcellulose) (HPC) 106 % of control | dose: 100.0 mg/kg/injection, schedule: Q04DX002 (ip), vehicle: Klucel (hydroxypropylcellulose) (HPC) 95 % of control

CCOP(=O)(OCC)C(=O)C1C(C=C(C)C)C1(C)C (stereo unspecified)
inactive: dose: 100.0 mg/kg/injection, schedule: Q04DX002 (ip), vehicle: saline 123 % of control | dose: 200.0 mg/kg/injection, schedule: Q04DX002 (ip), vehicle: saline 104 % of control | dose: 400.0 mg/kg/injection, schedule: Q04DX002 (ip), vehicle: saline 115 % of control

CC(=O)Nc1ccc(N(CCO)CCO)cc1
inactive: dose: 25.6 mg/kg/injection, schedule: Q04DX002 (ip), vehicle: saline with Tween-80 88 % of control | dose: 64.0 mg/kg/injection, schedule: Q04DX002 (ip), vehicle: saline with Tween-80 88 % of control | dose: 160.0 mg/kg/injection, schedule: Q04DX002 (ip), vehicle: saline with Tween-80 88 % of control | dose: 400.0 mg/kg/injection, schedule: Q04DX002 (ip), vehicle: saline with Tween-80 92 % of control

OCCOC(c1ccccc1)(c1ccccc1)c1ccccc1
inactive: dose: 50.0 mg/kg/injection, schedule: Q01DX009 (ip), vehicle: saline with Tween-80 98 % of control | [1] 100 % of control | [2] 91 % of control

NC(=O)c1ncc[nH]c1=O
inactive: [3] 94 % of control | dose: 50.0 mg/kg/injection, schedule: Q01DX009 (ip), vehicle: saline 97 % of control | [4] 97 % of control | [5] 103 % of control | [6] 97 % of control | [7] 105 % of control | [8] 90 % of control | [9] 95 % of control | [10] 100 % of control

COc1ccc(C(=O)CCCCl)cc1
inactive: [4] 102 % of control | [6] 107 % of control | [7] 102 % of control | [9] 96 % of control | [11] 89 % of control | [10] 102 % of control

O=S1(=O)C(Cl)c2ccccc2-c2ccccc2C1Cl (stereo unspecified)
inactive: dose: 25.0 mg/kg/injection, schedule: Q04DX002 (ip), vehicle: gum acacia 89 % of control | dose: 50.0 mg/kg/injection, schedule: Q04DX002 (ip), vehicle: gum acacia 89 % of control | dose: 100.0 mg/kg/injection, schedule: Q04DX002 (ip), vehicle: gum acacia 93 % of control

CC1CCC(C)(C)C1=O (stereo unspecified)
inactive: [5] 106 % of control | [8] 96 % of control | [12] 98 % of control

COC(=O)CCCCCCCC(=O)OCC#CC#CCOC(=O)CCCCCCCC(=O)OC
inactive: [4] 95 % of control | [6] 107 % of control | [7] 90 % of control | [9] 94 % of control | [11] 95 % of control | [10] 91 % of control

NC(=O)COc1c(F)c(F)c(F)c(F)c1F
inactive: [1] 101 % of control | [2] 101 % of control | [13] 97 % of control

O=[N+]([O-])c1ccc(N2CCN(c3cccc(C(F)(F)F)c3)CC2)c([N+](=O)[O-])c1
inactive: [14] 105 % of control | [15] 102 % of control | [16] 100 % of control

CC(=O)NC1(CO)CCCCC1
inactive: [17] 105 % of control | [18] 95 % of control | [19] 94 % of control

CCOC(=O)C1(CCCN2C(=O)c3ccccc3C2=O)CC(C(=O)OCC)(C(=O)OCC)CCC1=O (stereo unspecified)
inactive: dose: 100.0 mg/kg/injection, schedule: Q04DX002 (ip), vehicle: saline with Tween-80 94 % of control | dose: 200.0 mg/kg/injection, schedule: Q04DX002 (ip), vehicle: saline with Tween-80 100 % of control

CC12CCC3c4ccc([O-])c([N+]#N)c4CCC3C1CCC2=O (stereo unspecified)
inactive: [20] 103 % of control | [3] 87 % of control

CC1=CC(=O)N(NC(N)=O)C1=O
inactive: [14] 94 % of control | [2] 90 % of control | [15] 102 % of control | [16] 105 % of control

O=C1NC(CCl)(CCl)CO1
inactive: dose: 0.5 mg/kg/injection, schedule: Q01DX001 (ip), vehicle: saline 94 % of control | dose: 1.0 mg/kg/injection, schedule: Q01DX001 (ip), vehicle: saline 94 % of control | dose: 2.0 mg/kg/injection, schedule: Q01DX001 (ip), vehicle: saline 105 % of control

Cc1nnc([N+](=O)[O-])s1
inactive: dose: 12.5 mg/kg/injection, schedule: Q01DX009 (ip), vehicle: Klucel (hydroxypropylcellulose) (HPC) 107 % of control | [20] 112 % of control | [3] 102 % of control

Cc1c(Cl)c(CCl)c(Cl)c(CCl)c1Cl
inactive: dose: 100.0 mg/kg/injection, schedule: Q01DX001 (ip), vehicle: Klucel (hydroxypropylcellulose) (HPC) 94 % of control | dose: 200.0 mg/kg/injection, schedule: Q01DX001 (ip), vehicle: Klucel (hydroxypropylcellulose) (HPC) 92 % of control | dose: 400.0 mg/kg/injection, schedule: Q01DX001 (ip), vehicle: Klucel (hydroxypropylcellulose) (HPC) 89 % of control

CCOP(=O)(OCC)N1C(C)C1c1ccccc1 (stereo unspecified)
inactive: dose: 25.0 mg/kg/injection, schedule: Q04DX003 (sc), vehicle: carboxymethylcellulose (CMC) 100 % of control | dose: 50.0 mg/kg/injection, schedule: Q04DX003 (sc), vehicle: carboxymethylcellulose (CMC) 104 % of control | dose: 100.0 mg/kg/injection, schedule: Q04DX003 (sc), vehicle: carboxymethylcellulose (CMC) 112 % of control

Cc1cc(O)c(O)c([N+](=O)[O-])c1
inactive: [14] 96 % of control | [15] 92 % of control | [16] 101 % of control

O=C(/C=N\O)c1ccncc1
inactive: [4] 100 % of control | [7] 94 % of control

Nc1cccc2[nH]cnc12
inactive: [5] 98 % of control | [17] 106 % of control | [8] 111 % of control | [18] 104 % of control | [12] 93 % of control | [19] 101 % of control

CC1(C(=O)N2c3ccccc3C=CC2C#N)CC2C=CC1C2 (stereo unspecified)
inactive: [6] 106 % of control | [9] 110 % of control | [10] 123 % of control

COc1ccc(S(=O)(=O)Nc2cc(Cl)ccc2Cl)cc1
inactive: [1] 92 % of control | [2] 103 % of control | [13] 95 % of control
